Measurements reported in PubChem BioAssay (NCI).
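All cell lines were grown in 96-well plates and treated with compound for 48 hours. GI50 is the concentration that inhibits growth by half. At the TGI there is no net growth.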

Legend:
Assay in all cases: NCI anticancer screen, dose series, 48 h; in the data active = GI50 below about 0.43 µM; inactive = the rest
[1] = tested on: SR leukemia
[2] = tested on: LOX IMVI melanoma
[3] = tested on: HS 578T breast
[4] = tested on: IGROV1 ovarian
[5] = tested on: UACC-62 melanoma
[6] = tested on: BT-549 breast
[7] = tested on: EKVX NSCLC
[8] = tested on: TK-10 renal
[9] = tested on: OVCAR-4 ovarian
[10] = tested on: SF-295 CNS
[11] = tested on: RPMI-8226 leukemia
[12] = tested on: MCF7 breast
[13] = tested on: UO-31 renal
[14] = tested on: T-47D breast
[15] = tested on: HCT-15 colon
[16] = tested on: K-562 leukemia
[17] = tested on: M14 melanoma
[18] = tested on: A549 NSCLC
[19] = tested on: NCI-H226 lung
[20] = tested on: CAKI-1 renal
[21] = tested on: MALME-3M melanoma
[22] = tested on: KM12 colon
[23] = tested on: NCI-H460 lung
[24] = tested on: NCI-H522 lung
[25] = tested on: HT29 colon
[26] = tested on: SNB-75 CNS
[27] = tested on: SK-MEL-5 melanoma
[28] = tested on: MDA-MB-435
[29] = tested on: HOP-62 NSCLC
[30] = tested on: SK-MEL-28 melanoma
[31] = tested on: SF-539 CNS
[32] = tested on: SN12C renal
[33] = tested on: NCI/ADR-RES ovarian
[34] = tested on: ACHN renal
[35] = tested on: MOLT-4 leukemia
[36] = tested on: A498 renal
[37] = tested on: NCI-H23 lung
[38] = tested on: UACC-257 melanoma
[39] = tested on: U251 CNS
[40] = tested on: DU-145 prostate
[41] = tested on: HL-60(TB) leukemia
[42] = tested on: SK-OV-3 ovarian
[43] = tested on: OVCAR-5 ovarian
[44] = tested on: SNB-19 CNS
[45] = tested on: HCT-116 colon
[46] = tested on: SW-620 colon
[47] = tested on: CCRF-CEM leukemia
[48] = tested on: 786-0 renal
[49] = tested on: RXF 393 renal
[50] = tested on: SK-MEL-2 melanoma
[51] = tested on: SF-268 CNS
[52] = tested on: PC-3 prostate
[53] = tested on: MDA-MB-231 breast
[54] = tested on: HOP-92 NSCLC
[55] = tested on: HCC-2998 colon

COc1ccc(N(C)c2cc(C#N)nc3ccccc23)cc1N
131 nM: TGI [55]
> 54100 nM: TGI [11] | TGI [37]
> 37100 nM: TGI [47]
> 34300 nM: TGI [32]
> 73900 nM: TGI [1]
> 76200 nM: TGI [54]
> 60600 nM: TGI [35]
inactive: GI50 [8] 19600 nM | GI50 [9] 3690 nM | GI50 [14] 7610 nM | GI50 [36] 83400 nM | GI50 [38] 8620 nM
> 67700 nM: TGI [26]
> 64200 nM: TGI [2]
> 45400 nM: TGI [22]
1530 nM: TGI [45]
> 100000 nM: TGI [3] | TGI [4] | TGI [5] | TGI [7] | TGI [8] | TGI [9] | TGI [10] | TGI [12] | TGI [13] | TGI [14] | TGI [16] | TGI [17] | TGI [18] | TGI [19] | TGI [20] | TGI [29] | TGI [30] | TGI [34] | TGI [36] | TGI [38] | TGI [39] | TGI [40] | TGI [42] | TGI [43] | TGI [44] | TGI [46] | TGI [48] | TGI [49] | TGI [51] | TGI [52]
> 84600 nM: TGI [21]
4560 nM: TGI [23]
active: GI50 [1] < 10 nM | GI50 [2] < 10 nM | GI50 [3] < 10 nM | GI50 [4] < 10 nM | GI50 [5] < 10 nM | GI50 [6] < 10 nM | GI50 [7] < 10 nM | GI50 [10] < 10 nM | GI50 [11] < 10 nM | GI50 [12] < 10 nM | GI50 [13] < 10 nM | GI50 [15] < 10 nM | GI50 [16] < 10 nM | GI50 [17] < 10 nM | GI50 [18] < 10 nM | GI50 [19] < 10 nM | GI50 [20] < 10 nM | GI50 [21] < 10 nM | GI50 [22] < 10 nM | GI50 [23] < 10 nM | GI50 [24] < 10 nM | GI50 [25] < 10 nM | GI50 [26] < 10 nM | GI50 [27] < 10 nM | GI50 [28] < 10 nM | GI50 [29] < 10 nM | GI50 [31] < 10 nM | GI50 [32] < 10 nM | GI50 [33] < 10 nM | GI50 [34] < 10 nM | GI50 [35] < 10 nM | GI50 [37] < 10 nM | GI50 [39] < 10 nM | GI50 [40] < 10 nM | GI50 [41] < 10 nM | GI50 [42] < 18.7 nM | GI50 [43] < 10 nM | GI50 [44] < 10 nM | GI50 [45] < 10 nM | GI50 [46] < 10 nM | GI50 [47] < 10 nM | GI50 [48] < 10 nM | GI50 [49] < 10 nM | GI50 [50] < 10 nM | GI50 [51] < 10 nM | GI50 [52] < 10 nM | GI50 [53] < 10 nM | GI50 [55] < 10 nM
< 10 nM: TGI [24] | TGI [25] | TGI [27] | TGI [28] | TGI [31] | TGI [33] | TGI [41] | TGI [53]
